Measured values published in publication PMC2248166, “Quantitative peptide binding motifs for 19 human and mouse MHC class I molecules derived using positional scanning combinatorial peptide libraries” (Immunome Research, 2008).

Assays:
Format in all cases: binding
[1] = molecular target: HLA B*1501 (Homo sapiens, UniProt P01889, A329T/A93T/A95T/C349S/D201E/D98Y/E187L/E204Q/E69M/E70A/K202T/N87E/Q94N/R155S/R180W/S121R/S35A/S48A/V306I/V36M/Y140S/Y91S); assay: biochemical
[2] = molecular target: H-2 K^k (Mus musculus, UniProt P04223)
H-2 K^k, sequence (P01887 21-119): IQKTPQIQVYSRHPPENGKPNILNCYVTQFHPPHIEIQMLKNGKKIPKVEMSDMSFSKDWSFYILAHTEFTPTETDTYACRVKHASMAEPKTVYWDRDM
H-2 K^k, sequence (P04223 22-369): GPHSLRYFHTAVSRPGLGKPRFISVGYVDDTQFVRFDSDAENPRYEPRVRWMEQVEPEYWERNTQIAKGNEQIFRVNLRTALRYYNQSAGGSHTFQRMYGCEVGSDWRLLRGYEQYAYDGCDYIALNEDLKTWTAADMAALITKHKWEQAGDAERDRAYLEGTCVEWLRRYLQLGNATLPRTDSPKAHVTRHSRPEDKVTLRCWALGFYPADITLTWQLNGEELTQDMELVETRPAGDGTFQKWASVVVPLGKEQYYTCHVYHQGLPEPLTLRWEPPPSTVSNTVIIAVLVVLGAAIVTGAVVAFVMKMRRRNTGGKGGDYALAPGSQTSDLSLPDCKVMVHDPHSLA

[3] = molecular target: HLA A*3201 (Homo sapiens, UniProt P04439, A270S/D101S/D185E/E176V/E277Q/F133L/G103R/G107R/G231S/H175R/I121M/I218V/I322F/K168Q/L105A/L300P/L318F/M331R/P208A/P217A/Q94H/R106L/R138Q/S129P/T104I/T323A/T345S/V100E/V321M/V358M); assay: biochemical
[4] = molecular target: HLA B*5301 (Homo sapiens, UniProt P01889, A329T/A93T/A95T/C349S/D201E/D98Y/E176V/E187L/E204Q/E69T/G107R/I218V/K202T/L105A/L119I/N104I/Q94N/R106L/R155S/R180L/S101N/S121R/S35A/S48A/T118I/V127L/V306I/V36M/Y140S/Y91F)
[5] = molecular target: HLA A*6802 (Homo sapiens, UniProt P04439, A269V/D140Y/D185E/E176V/E277Q/E87N/F33Y/G231S/I121R/I166T/I218V/L180W/L300P/L318F/N151K/P208A/P217A/Q86R/R138H/R169H/S129P/T345S/V36M)
[6] = molecular target: HLA B*5802 (Homo sapiens, UniProt P01889, A329T/C349S/D201E/D98Y/E176V/E187L/E204Q/E69T/G107R/I218V/I90N/K202T/L105A/N104I/N87E/Q89R/Q94S/R106L/R155S/R180L/R86G/S101N/S121W/S35A/S48A/V127L/V306I/V36M/Y140S/Y91M)
[7] = molecular target: HLA B*3501 (Homo sapiens, UniProt P01889, A329T/A93T/A95T/C349S/D201E/D98Y/E176V/E187L/E204Q/E69T/I218V/K202T/L119I/Q94N/R155S/R180L/S121R/S35A/S48A/T118I/V127L/V306I/V36M/Y140S/Y91F)
[8] = molecular target: H-2 D^b (Mus musculus, UniProt P01899)
H-2 D^b, sequence (P01887 21-119): as the sequence (P01887 21-119) above
H-2 D^b, sequence (P01899 25-362): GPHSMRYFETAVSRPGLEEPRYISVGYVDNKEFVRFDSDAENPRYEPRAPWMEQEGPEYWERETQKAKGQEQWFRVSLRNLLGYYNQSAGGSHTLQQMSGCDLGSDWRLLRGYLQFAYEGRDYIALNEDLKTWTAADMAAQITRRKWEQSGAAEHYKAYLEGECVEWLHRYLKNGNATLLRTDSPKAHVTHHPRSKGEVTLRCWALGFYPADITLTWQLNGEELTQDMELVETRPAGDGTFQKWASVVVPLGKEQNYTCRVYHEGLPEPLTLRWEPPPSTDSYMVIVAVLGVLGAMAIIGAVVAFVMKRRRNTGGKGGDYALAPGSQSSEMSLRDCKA

[9] = molecular target: H-2 D^d (Mus musculus, UniProt P01900)
H-2 D^d, sequence (P01900 whole entry, looked up): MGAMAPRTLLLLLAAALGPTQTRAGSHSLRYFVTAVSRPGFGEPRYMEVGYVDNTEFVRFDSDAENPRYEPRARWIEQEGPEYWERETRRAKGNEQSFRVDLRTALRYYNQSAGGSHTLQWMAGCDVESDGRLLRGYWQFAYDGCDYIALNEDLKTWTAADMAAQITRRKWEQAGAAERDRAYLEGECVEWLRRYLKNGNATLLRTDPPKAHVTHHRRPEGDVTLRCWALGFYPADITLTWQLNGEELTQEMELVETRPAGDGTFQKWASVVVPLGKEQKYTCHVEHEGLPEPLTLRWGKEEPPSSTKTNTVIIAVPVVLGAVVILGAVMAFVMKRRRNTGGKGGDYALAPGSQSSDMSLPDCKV

[10] = molecular target: HLA A*3001 (Homo sapiens, UniProt P04439, D140H/D185E/E176W/F33S/G80R/H175R/K168Q/R138E/R41S); assay: biochemical
[11] = molecular target: HLA B*1503 (Homo sapiens, UniProt P01889, A329T/A93T/A95T/C349S/D201E/D98Y/E187L/E204Q/K202T/N87E/Q94N/R155S/R180L/S121R/S35A/V306I/V36M/Y140S/Y91S); assay: biochemical
[12] = molecular target: HLA B*5401 (Homo sapiens, UniProt P01889, A329T/C349S/D138N/D201E/E176V/E187T/E204Q/E69G/I76V/K202T/L119W/R155S/R180L/S121T/S35A/S48A/V127L/V306I/V36M/Y140L)
[13] = molecular target: HLA B*5801 (Homo sapiens, UniProt P01889, A329T/C349S/D201E/D98Y/E176V/E187L/E204Q/E69T/G107R/I218V/I90N/K202T/L105A/L119I/N104I/N87E/Q89R/Q94S/R106L/R155S/R180L/R86G/S101N/S121R/S35A/S48A/T118I/V127L/V306I/V36M/Y140S/Y91M)
[14] = molecular target: H-2 K^d (Mus musculus, UniProt P01902)
H-2 K^d, sequence (P01887 21-119): as the sequence (P01887 21-119) above
H-2 K^d, sequence (P01902 22-368): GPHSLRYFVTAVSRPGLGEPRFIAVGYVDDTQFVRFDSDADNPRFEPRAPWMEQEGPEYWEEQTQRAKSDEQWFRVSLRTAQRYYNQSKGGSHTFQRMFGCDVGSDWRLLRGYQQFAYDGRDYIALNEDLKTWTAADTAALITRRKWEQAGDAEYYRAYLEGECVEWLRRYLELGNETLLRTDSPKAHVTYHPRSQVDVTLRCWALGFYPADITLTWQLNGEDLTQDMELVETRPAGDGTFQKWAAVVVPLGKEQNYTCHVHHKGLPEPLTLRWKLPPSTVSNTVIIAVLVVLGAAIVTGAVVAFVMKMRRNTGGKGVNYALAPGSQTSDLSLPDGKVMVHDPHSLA

[15] = molecular target: HLA B*5101 (Homo sapiens, UniProt P01889, A329T/A93T/A95T/C349S/D138N/D201E/D98Y/E187L/E204Q/E69T/G107R/I218V/K202T/L105A/L119W/N104I/Q94N/R106L/R155S/R180L/S101N/S121T/S35A/S48A/V306I/V36M/Y195H/Y91F)
[16] = molecular target: HLA B*0801 (Homo sapiens, UniProt P01889, A93T/A95T/D138N/E176V/E187T/K202T/Q94N/R180D/S35A/V36M/Y33D/Y91F); assay: biochemical

Sequence | Normalized average relative binding affinity(ARB) [1] | Normalized average relative binding affinity(ARB) [2] | Normalized average relative binding affinity(ARB) [3] | Normalized average relative binding affinity(ARB) [4] | Normalized average relative binding affinity(ARB) [5] | Normalized average relative binding affinity(ARB) [6] | Normalized average relative binding affinity(ARB) [7] | Normalized average relative binding affinity(ARB) [8] | Normalized average relative binding affinity(ARB) [9] | Normalized average relative binding affinity(ARB) [10] | Normalized average relative binding affinity(ARB) [11] | Normalized average relative binding affinity(ARB) [12] | Normalized average relative binding affinity(ARB) [13] | Normalized average relative binding affinity(ARB) [14] | Normalized average relative binding affinity(ARB) [15] | Normalized average relative binding affinity(ARB) [16]
XXXEXXXXX [3064.0064] | 0.27 | 0.41 | 0.36 | 0.24 | 0.14 | 0.18 | 0.087 | 0.35 | 0.38 | 0.34 | 0.25 | 0.15 | 0.21 | 0.18 | 0.46 | 0.24
XXXXXXXKX [3064.0149] | 0.24 | 0.13 | 0.24 | 0.78 | 0.12 | 0.15 | 0.36 | 0.076 | 0.24 | 0.12 | 0.085 | 0.099 | 0.14 | 0.23 | 0.20 | 0.14
XXXIXXXXX [3064.0068] | 0.27 | 0.39 | 0.15 | 0.18 | 0.088 | 0.33 | 1.0 | 0.87 | 0.79 | 0.34 | 0.26 | 0.16 | 0.23 | 0.22 | 1.0 | 0.38
XXXXDXXXX [3064.0083] | 0.17 | 0.026 | 0.043 | 0.13 | 0.20 | 0.12 | 0.25 | 0.058 | 0.049 | 0.041 | 0.23 | 0.27 | 0.11 | 0.15 | 0.34 | 0.0054
XXXXXXXNX [3064.0152] | 0.12 | 0.066 | 0.42 | 0.21 | 0.18 | 0.27 | 0.14 | 0.099 | 0.49 | 0.54 | 0.13 | 0.076 | 0.25 | 0.40 | 0.33 | 0.086
XXXXXXXQX [3064.0154] | 0.17 | 0.19 | 0.35 | 0.16 | 0.14 | 0.30 | 0.10 | 0.16 | 0.68 | 0.27 | 0.19 | 0.11 | 0.39 | 0.54 | 0.32 | 0.15
